In ChEMBL document CHEMBL1122977, “A new class of cardiotonic agents: structure-activity correlations for natural and synthetic analogues of the alkaloid A new class of A new class of cardiotonic agents: structure-activity correlations for natural and synthetic analogues of the alkaloid pumiliotoxin B …” (J Med Chem, 1985):
pIC50: −log10 of the molar value.

Experiments:
Conditions in all cases: Cardiac atrium
Cavia porcellus [1] = organism: Cavia porcellus; assay: Effect on rate of atrial contractions induced by PTX-B in guinea pig (control value); assay type: functional, organism-based
Cavia porcellus [2] = organism: Cavia porcellus; assay: Effect on force of atrial contractions induced by PTX-B in guinea pig; assay type: functional, organism-based
Cavia porcellus [3] = organism: Cavia porcellus; assay: Effect on force of atrial contractions induced by PTX-B in guinea pig (control value); assay type: functional
Cavia porcellus [4] = organism: Cavia porcellus; assay: Effect on rate of atrial contractions induced by PTX-B in guinea pig; assay type: functional, organism-based

`COC(=O)C1=C(C)NC(C)=C(C(=O)OC)C1c1ccccc1[N+](=O)[O-]` [NIFEDIPINE] gave a pIC50 (Cavia porcellus [1]) of 6.22, a pIC50 (Cavia porcellus [2]) of 5.22 and a pIC50 (Cavia porcellus [3]) of 6.40. For the same compound, the pIC50 (Cavia porcellus [4]) was 4.92.

With `COc1ccc(CCN(C)CCCC(C#N)(c2ccc(OC)c(OC)c2)C(C)C)cc1OC` (stereo not drawn) [VERAPAMIL] the pIC50 (Cavia porcellus [1]) was 6.15, the pIC50 (Cavia porcellus [2]) was 5.00 and the pIC50 (Cavia porcellus [3]) was 6.10. The pIC50 (Cavia porcellus [4]) was 4.80.
